{"source": "patent US20130040882A1", "about": "“USE OF FIBROBLAST GROWTH FACTOR FRAGMENTS” (NOVARTIS AG, priority 2003, published 2013)", "key": {"[1]": {"tested_on": "gene expression in organs", "assay": "Blind monkey trial of three peptides: gene expression profiling of organs on Affymetrix U95 chips", "type": "in vivo, cynomolgus monkeys", "conditions": "100 μg/animal/day sc, two weeks"}, "[2]": {"assay": "Blind monkey trial of three peptides: biochemistry, clinical chemistry screening and histopathology", "type": "in vivo, cynomolgus monkeys", "conditions": "100 μg/animal/day sc, two weeks", "description": "For the verification of the selected human proteins or peptides in cynomolgus monkeys, one control and four treated groups (i.e., each of three peptides and placebo) of two males and two females are treated for two weeks by daily administration of the proteins dissolved in autologous serum (e.g., in each animal's own serum) through the subcutaneous route. The administration of the peptides was blinded. The amount of peptide administered was 100 μg/animal/day (5-6 mg of peptide total).\nDrug profiling in these non-human primates was analyzed using gene expression profiling of more than 100 organs on Affymetrix U95 chips (each containing ⅓ of the human genome). In addition, extensive biochemistry and clinical chemistry screening (>60 parameters) and histopathology (ca. 60 organs) were performed."}}, "note": "Entries after “also recorded” stand apart in the source; their conditions may differ.", "data": [{"substance": "Peptide 2: gonadotrophin releasing hormone (QHWSYGLRPG; Gonadoliberin-1; UniProt P01148 24-33, looked up)", "values": [{"measurement": "Conclusions of the in vivo Profiling by the Data Mining Team: Function/Pathway", "setting": "[1]", "result": "Ovarian and testicular"}, {"measurement": "Findings by the Data Mining Team: Adrenals (gene with direction)", "setting": "[1]", "result": "Follistatin+; also recorded: IGF2+; also recorded: catecholamines synthesis+; also recorded: activin A−/inhibin+"}, {"measurement": "Findings by the Data Mining Team: Bone marrow (gene with direction)", "setting": "[1]", "result": "Macrophages+; also recorded: eosinophils+; also recorded: activin A−; also recorded: inhibin betaB+"}, {"measurement": "Findings by the Data Mining Team: Hypothalamus (gene with direction)", "setting": "[1]", "result": "Transthyretin+; also recorded: oxytocin"}, {"measurement": "Findings by the Data Mining Team: Kidney (gene with direction)", "setting": "[1]", "result": "Thiol protease inhibitor (aldosterone + in biochemistry), and +GAPDH and +STAT and +JAK and +TEGT"}, {"measurement": "Findings by the Data Mining Team: Liver (gene with direction)", "setting": "[1]", "result": "Activin A−; also recorded: inhibin betaB+; also recorded: lipid metabolism+; also recorded: glycolysis+; also recorded: follistatin+; also recorded: IDO1+; also recorded: VEGF−"}, {"measurement": "Findings by the Data Mining Team: Mammary gland", "setting": "[1]", "result": "Inconclusive; Sampling heterogenous"}, {"measurement": "Findings by the Data Mining Team: Ovary (gene with direction)", "setting": "[1]", "result": "Nuclear receptors−; also recorded: aromatase and estrogen synthase+; also recorded: activinA−; also recorded: inhibin beta B+"}, {"measurement": "Findings by the Data Mining Team: Testis (gene with direction)", "setting": "[1]", "result": "CREM+"}, {"measurement": "Findings by the Data Mining Team: Thymus (gene with direction)", "setting": "[1]", "result": "Integrin alpha6+; also recorded: VAP1+; also recorded: lipid metabolism; also recorded: binding protein+,"}, {"measurement": "Findings by the Data Mining Team: Thyroid (gene with direction)", "setting": "[1]", "result": "Ocludin+; also recorded: thyroid hormone binding protein+; also recorded: THR alpha−"}, {"measurement": "Findings by the Data Mining Team: Biochemistry/Histopathology/Haematology (parameter with direction)", "setting": "[2]", "result": "Slight increase in aldosterone"}]}]}
